{
  "source": "patent US5141290A",
  "about": "“Toothbrush” (Hamivreshet Brush Factory, priority 1990, dated 1992)",
  "origin": "cited, not measured here",
  "tested_on": "dental plaque",
  "data": [
    {"compound": "[H]/N=C(\\N/C(=N/[H])NCCCCCCNC(=N)NC(=N)Nc1ccc(Cl)cc1)Nc1ccc(Cl)cc1", "note": "[chlorhexidine]", "values": [
      {"measurement": "potential to inhibit the formation of plaque", "setting": "clinically tested, among chemical agents", "result": "has shown the greatest promise"},
      {"measurement": "plaque-reducing property", "setting": "in vivo", "result": "high plaque-reducing property"}
    ]}
  ]
}
